# In ChEMBL document CHEMBL5584296, “Discovery of Novel Pyrimidine-Based Derivatives as Nav1.2 Inhibitors with Efficacy in Mouse Models of Epilepsy” (J Med Chem, 2024):
# Assays:
# Mus musculus [1] = experiment: Antiepileptic activity in 6 Hz(32 mA)-induced seizure male C57BL mouse model assessed as protection against seizure at 200 mg/kg, ip administered for 30 mins by epilepsy test; format: functional; settings: 0.5 h
# Mus musculus [2] = experiment: Antiepileptic activity in MES-induced seizure male ICR mouse model assessed as protection against tonic hind limb extension at 300 mg/kg, ip measured after 30 mins relative to control; format: functional; settings: 0.5 h
# [3] = target: T1, Sodium channel protein type 2 subunit alpha (Homo sapiens, UniProt Q99250); experiment: Inhibition of human Nav1.2 expressed in HEK293 cells assessed as test to control ratio at 1 uM measured after 5 mins by whole cell voltage clamp electrophysiological analysis; format: cell-based
# Target sequence in this assay (Q99250 whole entry, looked up): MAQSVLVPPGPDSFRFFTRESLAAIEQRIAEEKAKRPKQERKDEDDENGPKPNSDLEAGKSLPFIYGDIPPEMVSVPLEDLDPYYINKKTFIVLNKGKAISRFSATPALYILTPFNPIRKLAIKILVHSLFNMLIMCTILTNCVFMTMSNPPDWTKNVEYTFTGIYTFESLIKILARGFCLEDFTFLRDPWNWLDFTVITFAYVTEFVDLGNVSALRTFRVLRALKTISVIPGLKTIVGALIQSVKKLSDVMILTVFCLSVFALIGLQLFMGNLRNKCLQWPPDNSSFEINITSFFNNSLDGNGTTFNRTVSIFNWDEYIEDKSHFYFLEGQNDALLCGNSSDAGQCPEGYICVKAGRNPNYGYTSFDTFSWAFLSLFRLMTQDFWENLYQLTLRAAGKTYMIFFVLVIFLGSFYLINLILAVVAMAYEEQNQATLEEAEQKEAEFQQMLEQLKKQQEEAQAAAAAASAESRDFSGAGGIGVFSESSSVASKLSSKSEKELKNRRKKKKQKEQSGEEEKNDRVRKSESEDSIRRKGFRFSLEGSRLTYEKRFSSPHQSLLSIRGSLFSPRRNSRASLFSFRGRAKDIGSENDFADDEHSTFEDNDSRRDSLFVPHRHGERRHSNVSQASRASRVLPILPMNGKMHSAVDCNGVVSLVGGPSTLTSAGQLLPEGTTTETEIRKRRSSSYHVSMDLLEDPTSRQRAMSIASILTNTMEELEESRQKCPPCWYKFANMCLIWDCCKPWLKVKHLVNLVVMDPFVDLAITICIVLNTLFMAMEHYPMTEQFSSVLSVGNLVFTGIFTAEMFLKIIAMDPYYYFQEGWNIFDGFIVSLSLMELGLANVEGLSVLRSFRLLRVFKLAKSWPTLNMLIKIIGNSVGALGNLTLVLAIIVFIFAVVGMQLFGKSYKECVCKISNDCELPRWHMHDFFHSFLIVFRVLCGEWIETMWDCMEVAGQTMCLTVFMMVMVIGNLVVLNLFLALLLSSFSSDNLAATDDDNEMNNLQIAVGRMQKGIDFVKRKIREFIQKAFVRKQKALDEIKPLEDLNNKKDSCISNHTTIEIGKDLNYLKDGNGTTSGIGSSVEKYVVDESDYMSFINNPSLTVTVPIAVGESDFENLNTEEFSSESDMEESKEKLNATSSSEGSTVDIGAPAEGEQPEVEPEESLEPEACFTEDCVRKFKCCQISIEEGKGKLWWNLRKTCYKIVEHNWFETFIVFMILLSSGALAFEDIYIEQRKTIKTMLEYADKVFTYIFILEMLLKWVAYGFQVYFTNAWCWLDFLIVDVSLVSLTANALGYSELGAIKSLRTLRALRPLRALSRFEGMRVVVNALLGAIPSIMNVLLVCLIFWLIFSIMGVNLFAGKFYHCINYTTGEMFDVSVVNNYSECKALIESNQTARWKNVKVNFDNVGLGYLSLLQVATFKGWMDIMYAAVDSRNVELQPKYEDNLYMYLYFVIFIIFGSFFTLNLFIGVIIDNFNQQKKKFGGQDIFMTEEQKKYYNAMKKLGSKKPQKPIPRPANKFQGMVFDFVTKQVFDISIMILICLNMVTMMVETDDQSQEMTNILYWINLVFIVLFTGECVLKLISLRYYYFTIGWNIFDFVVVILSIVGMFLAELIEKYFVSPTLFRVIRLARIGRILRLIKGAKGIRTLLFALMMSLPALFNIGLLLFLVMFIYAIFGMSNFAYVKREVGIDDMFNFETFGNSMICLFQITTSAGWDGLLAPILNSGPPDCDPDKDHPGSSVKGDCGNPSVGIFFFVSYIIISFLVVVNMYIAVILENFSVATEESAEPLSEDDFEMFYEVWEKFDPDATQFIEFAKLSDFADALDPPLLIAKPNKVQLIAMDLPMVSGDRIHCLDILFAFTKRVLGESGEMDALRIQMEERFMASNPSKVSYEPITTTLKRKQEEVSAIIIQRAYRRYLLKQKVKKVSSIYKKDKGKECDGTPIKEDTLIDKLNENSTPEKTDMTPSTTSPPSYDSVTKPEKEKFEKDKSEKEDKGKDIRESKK
# [4] = target: T1, Sodium channel protein type 2 subunit alpha; experiment: Inhibition of human Nav1.2 expressed in HEK293 cells at 10 uM measured after 5 mins by whole cell voltage clamp electrophysiological analysis relative to control; format: cell-based
# Target sequence in this assay (Q99250 whole entry, looked up): as above
# [5] = target: T1, Sodium channel protein type 2 subunit alpha; experiment: Inhibition of human Nav1.2 expressed in HEK293 cells assessed as test to control ratio at 10 uM measured after 5 mins by whole cell voltage clamp electrophysiological analysis; format: cell-based
# Target sequence in this assay (Q99250 whole entry, looked up): as above
# [6] = target: T1, Sodium channel protein type 2 subunit alpha; experiment: Inhibition of human Nav1.2 expressed in HEK293 cells assessed as test to control ratio at 0.1 uM measured after 5 mins by whole cell voltage clamp electrophysiological analysis; format: cell-based
# Target sequence in this assay (Q99250 whole entry, looked up): as above
# Mus musculus [7] = experiment: Antiepileptic activity in 6 Hz(32 mA)-induced seizure male C57BL mouse model assessed as protection against seizure at 5 mg/kg, ip administered for 30 mins by epilepsy test; format: functional; settings: 0.5 h
# [8] = Neurotoxicity in male ICR mouse assessed as motor impairment at 37 mg/kg, ip administered for 30 mins by rotarod test relative to control; format: toxicity, organism-based; settings: in vivo, 0.5 h
# [9] = Neurotoxicity in male ICR mouse assessed as motor impairment at 35 mg/kg, ip administered for 30 mins by rotarod test relative to control; format: toxicity, organism-based; settings: in vivo, 0.5 h
# [10] = target: T1, Sodium channel protein type 2 subunit alpha; experiment: Inhibition of human Nav1.2 expressed in HEK293 cells at -120 mv holding potential measured after 5 mins by whole cell voltage clamp electrophysiological analysis; format: cell-based
# Target sequence in this assay (Q99250 whole entry): as the sequence (Q99250 whole entry, looked up) above
# Mus musculus [11] = experiment: Antiepileptic activity in MES-induced seizure male ICR mouse model assessed as protection against tonic hind limb extension at 5 mg/kg, ip measured after 30 mins relative to control; format: functional; settings: 0.5 h
# [12] = target: T2, Sodium channel protein type 5 subunit alpha (Homo sapiens, UniProt Q14524); experiment: Inhibition of human Nav1.5 expressed in CHL cells assessed as test to control ratio at 1 uM by whole cell voltage clamp electrophysiological analysis; format: cell-based
# T2 sequence (Q14524 whole entry): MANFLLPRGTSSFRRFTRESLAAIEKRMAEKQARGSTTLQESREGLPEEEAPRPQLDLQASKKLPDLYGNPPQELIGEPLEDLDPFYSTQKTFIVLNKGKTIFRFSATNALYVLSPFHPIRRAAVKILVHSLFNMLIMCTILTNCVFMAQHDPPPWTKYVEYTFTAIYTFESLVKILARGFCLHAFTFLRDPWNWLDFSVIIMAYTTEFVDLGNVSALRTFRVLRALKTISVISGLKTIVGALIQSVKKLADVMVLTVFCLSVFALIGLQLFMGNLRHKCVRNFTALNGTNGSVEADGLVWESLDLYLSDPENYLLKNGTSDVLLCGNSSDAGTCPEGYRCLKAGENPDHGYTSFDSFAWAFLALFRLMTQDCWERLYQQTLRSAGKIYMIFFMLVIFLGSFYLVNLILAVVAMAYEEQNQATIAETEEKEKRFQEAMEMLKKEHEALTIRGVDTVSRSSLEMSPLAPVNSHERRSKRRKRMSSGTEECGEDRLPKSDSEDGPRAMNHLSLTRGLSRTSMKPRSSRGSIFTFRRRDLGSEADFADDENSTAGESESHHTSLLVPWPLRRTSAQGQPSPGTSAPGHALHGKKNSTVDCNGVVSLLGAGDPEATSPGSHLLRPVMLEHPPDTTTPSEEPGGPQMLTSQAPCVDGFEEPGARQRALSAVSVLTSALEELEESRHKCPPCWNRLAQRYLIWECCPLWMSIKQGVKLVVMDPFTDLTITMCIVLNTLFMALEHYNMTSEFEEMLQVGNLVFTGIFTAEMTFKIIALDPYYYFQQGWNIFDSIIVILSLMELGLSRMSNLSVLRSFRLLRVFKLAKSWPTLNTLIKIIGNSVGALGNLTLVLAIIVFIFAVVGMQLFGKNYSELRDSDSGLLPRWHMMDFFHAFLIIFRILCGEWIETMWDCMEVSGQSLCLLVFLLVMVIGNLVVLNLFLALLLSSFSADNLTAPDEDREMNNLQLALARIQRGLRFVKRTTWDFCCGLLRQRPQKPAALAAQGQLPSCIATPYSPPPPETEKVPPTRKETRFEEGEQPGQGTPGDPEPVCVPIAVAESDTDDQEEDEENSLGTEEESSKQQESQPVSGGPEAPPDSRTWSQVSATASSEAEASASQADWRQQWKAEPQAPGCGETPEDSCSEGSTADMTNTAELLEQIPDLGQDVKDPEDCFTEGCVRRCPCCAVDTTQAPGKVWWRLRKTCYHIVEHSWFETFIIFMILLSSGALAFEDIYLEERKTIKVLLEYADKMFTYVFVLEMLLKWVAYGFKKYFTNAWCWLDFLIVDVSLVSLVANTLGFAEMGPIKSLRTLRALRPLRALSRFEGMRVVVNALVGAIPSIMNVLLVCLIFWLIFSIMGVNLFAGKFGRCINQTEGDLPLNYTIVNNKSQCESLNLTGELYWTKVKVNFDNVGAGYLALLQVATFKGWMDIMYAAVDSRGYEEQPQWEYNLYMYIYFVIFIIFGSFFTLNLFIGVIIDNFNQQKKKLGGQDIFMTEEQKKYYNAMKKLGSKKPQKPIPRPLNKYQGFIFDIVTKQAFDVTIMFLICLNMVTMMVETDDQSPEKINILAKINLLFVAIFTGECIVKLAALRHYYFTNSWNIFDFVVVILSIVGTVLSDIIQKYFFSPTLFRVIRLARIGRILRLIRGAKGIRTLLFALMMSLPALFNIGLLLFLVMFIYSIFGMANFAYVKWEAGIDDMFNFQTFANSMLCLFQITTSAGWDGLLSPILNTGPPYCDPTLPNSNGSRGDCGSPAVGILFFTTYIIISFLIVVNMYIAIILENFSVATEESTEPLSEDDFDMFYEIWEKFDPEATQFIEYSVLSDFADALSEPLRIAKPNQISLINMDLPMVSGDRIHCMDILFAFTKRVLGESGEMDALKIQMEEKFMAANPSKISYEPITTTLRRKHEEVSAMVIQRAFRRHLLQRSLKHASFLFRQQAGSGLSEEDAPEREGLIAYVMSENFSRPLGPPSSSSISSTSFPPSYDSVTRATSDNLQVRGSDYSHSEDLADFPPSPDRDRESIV
# Mus musculus [13] = experiment: Antiepileptic activity in 6 Hz(32 mA)-induced seizure male C57BL mouse model assessed as protection against seizure at 10 mg/kg, ip administered for 30 mins by epilepsy test; format: functional; settings: 0.5 h
# [14] = target: Sodium channel protein type 8 subunit alpha (Homo sapiens) (UniProt Q9UQD0); experiment: Inhibition of human Nav1.6 expressed in CHO cells assessed as test to control ratio at 1 uM by whole cell voltage clamp electrophysiological analysis; format: cell-based
# [15] = Neurotoxicity in male ICR mouse assessed as motor impairment at 40 mg/kg, ip administered for 30 mins by rotarod test relative to control; format: toxicity, organism-based; settings: in vivo, 0.5 h
# [16] = target: Sodium channel protein type 8 subunit alpha (Homo sapiens) (UniProt Q9UQD0); experiment: Inhibition of human Nav1.6 expressed in CHO cells assessed as test to control ratio at 0.1 uM by whole cell voltage clamp electrophysiological analysis; format: cell-based
# [17] = target: T1, Sodium channel protein type 2 subunit alpha; experiment: Inhibition of human Nav1.2 expressed in HEK293 cells at -40 mv holding potential measured after 5 mins by whole cell voltage clamp electrophysiological analysis; format: cell-based
# Target sequence in this assay (Q99250 whole entry): as the sequence (Q99250 whole entry, looked up) above
# [18] = target: Sodium channel protein type 1 subunit alpha (Homo sapiens) (UniProt P35498); experiment: Inhibition of human Nav1.1 expressed in HEK293 cells assessed as test to control ratio at 0.1 uM by whole cell voltage clamp electrophysiological analysis; format: cell-based
# Mus musculus [19] = experiment: Antiepileptic activity in MES-induced seizure male ICR mouse model assessed as protection against tonic hind limb extension administered intraperitoneally for 30 mins; format: functional; settings: 0.5 h, route ip
# [20] = Neurotoxicity in male ICR mouse administered intraperitoneally for 30 mins; format: toxicity; settings: in vivo, route ip
# [21] = target: T1, Sodium channel protein type 2 subunit alpha; experiment: Inhibition of human Nav1.2 expressed in HEK293 cells assessed as effect on steady state activation by measuring half activation potential at 0.2 uM (reference value: -36 mV); format: cell-based
# Target sequence in this assay (Q99250 whole entry, looked up): as above
# [22] = Neurotoxicity in male ICR mouse assessed as motor impairment at 30 mg/kg, ip administered for 30 mins by rotarod test relative to control; format: toxicity, organism-based; settings: in vivo, 0.5 h
# [23] = target: T1, Sodium channel protein type 2 subunit alpha; experiment: Inhibition of human Nav1.2 expressed in HEK293 cells assessed as effect on steady state inactivation by measuring half activation potential at 0.2 uM (reference value: -54 mV); format: cell-based
# Target sequence in this assay (Q99250 whole entry, looked up): as above
# Mus musculus [24] = experiment: Antiepileptic activity in 6 Hz(32 mA)-induced seizure male C57BL mouse model assessed as protection against seizure at 30 mg/kg, ip administered for 30 mins by epilepsy test; format: functional; settings: 0.5 h
# Mus musculus [25] = experiment: Antiepileptic activity in MES-induced seizure male ICR mouse model assessed as protection against tonic hind limb extension at 25 mg/kg, ip measured after 30 mins relative to control; format: functional; settings: 0.5 h
# [26] = target: T2, Sodium channel protein type 5 subunit alpha; experiment: Inhibition of human Nav1.5 expressed in CHL cells assessed as test to control ratio at 0.1 uM by whole cell voltage clamp electrophysiological analysis; format: cell-based
# Mus musculus [27] = experiment: Antiepileptic activity in MES-induced seizure male ICR mouse model assessed as protection against tonic hind limb extension at 15 mg/kg, ip measured after 30 mins relative to control; format: functional; settings: 0.5 h
# [28] = target: Sodium channel protein type 1 subunit alpha (Homo sapiens) (UniProt P35498); experiment: Inhibition of human Nav1.1 expressed in HEK293 cells assessed as test to control ratio at 1 uM by whole cell voltage clamp electrophysiological analysis; format: cell-based
# Mus musculus [29] = experiment: Antiepileptic activity in 6 Hz(32 mA)-induced seizure male C57BL mouse model administered intraperitoneally for 30 mins by epilepsy test; format: functional; settings: 0.5 h, route ip
# [30] = target: T1, Sodium channel protein type 2 subunit alpha; experiment: Inhibition of Nav1.2 (unknown origin) at 100 uM relative to control
# [31] = Neurotoxicity in male ICR mouse assessed as motor impairment at 150 mg/kg, ip administered for 30 mins by rotarod test relative to control; format: toxicity, organism-based; settings: in vivo, 0.5 h
# Mus musculus [32] = experiment: Antiepileptic activity in MES-induced seizure male ICR mouse model assessed as protection against tonic hind limb extension at 20 mg/kg, ip measured after 30 mins relative to control; format: functional; settings: 0.5 h
# [33] = Neurotoxicity in male ICR mouse assessed as motor impairment at 250 mg/kg, ip administered for 30 mins by rotarod test relative to control; format: toxicity, organism-based; settings: in vivo, 0.5 h
# Mus musculus [34] = experiment: Antiepileptic activity in MES-induced seizure male ICR mouse model assessed as protection against tonic hind limb extension at 10 mg/kg, ip measured after 30 mins relative to control; format: functional; settings: 0.5 h
# [35] = target: T1, Sodium channel protein type 2 subunit alpha; experiment: Inhibition of human Nav1.2 expressed in HEK293 cells assessed as effect on steady state activation by measuring half activation potential at 20 uM (reference value: -37 mV); format: cell-based
# Mus musculus [36] = experiment: Antiepileptic activity in 6 Hz(32 mA)-induced seizure male C57BL mouse model assessed as protection against seizure at 50 mg/kg, ip administered for 30 mins by epilepsy test; format: functional; settings: 0.5 h
# [37] = Neurotoxicity in male ICR mouse assessed as motor impairment at 300 mg/kg, ip administered for 30 mins by rotarod test relative to control; format: toxicity, organism-based; settings: in vivo, 0.5 h
# Mus musculus [38] = experiment: Antiepileptic activity in MES-induced seizure male ICR mouse model assessed as protection against tonic hind limb extension at 30 mg/kg, ip measured after 30 mins relative to control; format: functional; settings: 0.5 h
# [39] = target: T1, Sodium channel protein type 2 subunit alpha; experiment: Inhibition of human Nav1.2 expressed in HEK293 cells assessed as effect on steady state inactivation by measuring half activation potential at 20 uM (reference value: -59 mV); format: cell-based
# [40] = Neurotoxicity in male ICR mouse assessed as motor impairment at 5 mg/kg, ip administered for 30 mins by rotarod test relative to control; format: toxicity, organism-based; settings: in vivo, 0.5 h
# [41] = target: T1, Sodium channel protein type 2 subunit alpha; experiment: Inhibition of Nav1.2 (unknown origin)
# Target sequence in this assay (Q99250 whole entry): as the sequence (Q99250 whole entry, looked up) above
structure (smiles),measurement,setting,value
CCCC(CCC)C(=O)O [VALPROIC ACID],Activity,Mus musculus [1],100%
same,Activity,Mus musculus [2],100%
COc1cccc(-c2cc(N3CCc4cc(OC)c(OC)cc4C3)nc(N)n2)c1,T/C,[3],0.35
same,inhibition,[4],99%
same,T/C,[5],0.01
same,T/C,[6],0.67
COc1cccc(-c2cc(N3CCCc4ccc(C)cc4C3)nc(N)n2)c1,Activity,Mus musculus [7],13%
same,Activity,[8],88%
same,Activity,[9],63%
same,T/C,[3],0.04
same,IC50,[10],158 nM
same,Activity,Mus musculus [11],25%
same,T/C,[12],0.07
same,Activity,Mus musculus [13],38%
same,T/C,[14],0.09
same,Activity,[15],100%
same,T/C,[16],0.42
same,IC50,[17],65 nM
same,T/C,[18],0.18
same,ED50,Mus musculus [19],11.1 mg/kg
same,T/C,[5],0
same,TD50 at 0.5 h,[20],31.9 mg/kg
same,V1/2,[21],-30 mV
same,Activity,[22],38%
same,V1/2,[23],-56 mV
same,Activity,Mus musculus [24],63%
same,Activity,Mus musculus [25],88%
same,T/C,[6],0.39
same,T/C,[26],0.18
same,Activity,Mus musculus [27],44%
same,T/C,[28],0.02
same,ED50,Mus musculus [29],18.5 mg/kg
O=C(CC(c1ccccc1)c1ccccc1)N1CCN(CCO)CC1,inhibition,[30],59.1%
COc1cccc(-c2cc(N3CCc4nc(Cl)ccc4C3)nc(N)n2)c1,T/C,[3],0.71
same,T/C,[5],0.18
same,T/C,[6],0.89
COc1cccc(-c2cc(NCc3ccc(OC)c(OC)c3)nc(N)n2)c1,T/C,[3],0.4
same,inhibition,[4],76%
same,T/C,[5],0.24
same,T/C,[6],0.7
COc1cccc(-c2cc(NCCc3ccc4c(c3)OCO4)nc(N)n2)c1,T/C,[3],0.34
same,T/C,[5],0.05
same,T/C,[6],0.86
COc1cccc(-c2cc(N3CC4CC(C3)c3ccccc34)nc(N)n2)c1,Activity,[31],13%
same,Activity,Mus musculus [32],50%
same,T/C,[3],0.4
same,IC50,[10],21500 nM
same,T/C,[12],0.37
same,Activity,Mus musculus [13],13%
same,T/C,[14],0.1
same,T/C,[16],0.51
same,IC50,[17],635 nM
same,T/C,[18],0.93
same,ED50,Mus musculus [19],15.8 mg/kg
same,T/C,[5],0.02
same,Activity,[33],38%
same,Activity,Mus musculus [34],38%
same,TD50 at 0.5 h,[20],232 mg/kg
same,V1/2,[35],-32 mV
same,Activity,Mus musculus [36],63%
same,Activity,[37],88%
same,Activity,Mus musculus [24],38%
same,Activity,Mus musculus [38],75%
same,T/C,[6],0.87
same,T/C,[26],0.89
same,V1/2,[39],-70 mV
same,T/C,[28],0.33
same,ED50,Mus musculus [29],38 mg/kg
COc1cccc(-c2cc(N3CCCc4ccc(C)cc4C3)nc(OC)n2)c1,T/C,[3],0.43
same,T/C,[5],0.11
same,T/C,[6],0.88
CN(C)CCCN1c2ccccc2Sc2ccc(Cl)cc21 [CHLORPROMAZINE],Activity,[40],88%
Cc1cccc(-c2cc(N3CCCc4ccccc4C3)nc(N)n2)c1,T/C,[3],0.24
same,T/C,[5],0.03
same,T/C,[6],0.85
CCCc1ccc(S(=O)(=O)Nc2nc(-c3cccc(OC)c3)cc(N3CCCc4ccccc4C3)n2)cc1,T/C,[3],0.12
same,inhibition,[4],92%
same,T/C,[5],0.08
same,T/C,[6],0.86
COc1cccc(-c2cc(N3CCCc4ccc(F)cc4C3)nc(N)n2)c1,T/C,[3],0.03
same,T/C,[5],0
same,T/C,[6],0.84
Cc1cccc(C)c1OCCCNCc1cc(C(C)(C)C)c(O)c(C(C)(C)C)c1,IC50,[41],180 nM
Nc1cnc(-c2cc(Cl)cc(Cl)c2Cl)c(N)n1 [ELPETRIGINE],IC50,[41],6000 nM
COc1cccc(-c2cc(NCCc3ccc(OC)c(OC)c3)nc(N)n2)c1,T/C,[3],0.35
same,T/C,[5],0.15
same,T/C,[6],0.61
COc1cccc(-c2nc(N)nc(N3CCCc4ccc(C)cc4C3)c2F)c1,T/C,[3],0.19
same,T/C,[5],0.01
same,T/C,[6],0.88
COc1cccc(-c2cc(N3CCCc4ccccc4C3)nc(NS(=O)(=O)c3ccc(F)cc3)n2)c1,T/C,[3],0.95
same,T/C,[5],0.36
same,T/C,[6],0.95
Nc1nc(-c2ccc(F)cc2)cc(N2CCCc3ccccc3C2)n1,T/C,[3],0.46
same,T/C,[5],0.18
same,T/C,[6],0.9
